Experimental findings from ChEMBL document CHEMBL6109146, “Discovery of New Pyrazolone Carbothioamide Derivatives as Potent Antifungal Agents for the Treatment of Candidiasis and Cryptococcosis” (J Med Chem, 2025) are described below.

In assay [1] the test system is Nakaseomyces glabratus. Briefly: Fungicidal activity against Candida glabrata 0161 at 32 microg/ml incubated for 48 hrs by time-kill kinetics analysis. Type of assay: functional, organism-based. Particulars: dose 32.0 µg/ml.
Assay [2] concerns Cryptococcus neoformans. The assay can be described thus: Inhibition of biofilm formation in Cryptococcus neoformans H99 at 32 microg/ml incubated for 24 hrs by XTT reagent based assay relative to control. In kind it is functional. For orientation: Tetrazolium assays rely on reduction of a dye to a coloured formazan, in cell work by metabolically active cells.
In assay [3] the test system is Nakaseomyces glabratus. The assay can be described thus: Inhibition of matured biofilm in Candida glabrata 0161 at 2 to 32 microg/ml incubated for 24 hrs by XTT reagent based assay. In kind it is functional, organism-based. The note with it: dose 2-32 µg/ml.
Assay [4] relates to Cryptococcus neoformans. Briefly: Inhibition of matured biofilm in Cryptococcus neoformans H99 at 2 to 32 microg/ml incubated for 24 hrs by XTT reagent based assay. Particulars: dose 2-32 µg/ml. In kind it is functional, organism-based.
Assay [5] concerns Cryptococcus neoformans. The assay can be described thus: Inhibition of capsule formation in Cryptococcus neoformans H99 at 32 microg/ml incubated for 24 hrs by light microscopic analysis. Type of assay: functional, organism-based. Particulars: dose 32.0 µg/ml.
Assay [6] deals with Cryptococcus neoformans. The assay can be described thus: Inhibition of urease production in Cryptococcus neoformans H99 at 0.031 to 1 microg/ml by photographic analysis relative to control. Particulars: dose 0.031-1 µg/ml. In kind it is functional.
In assay [7] the test system is Cryptococcus neoformans. The assay can be described thus: Inhibition of melanin production in Cryptococcus neoformans H99 at 0.031 to 1 microg/ml by photographic analysis relative to control. Type of assay: functional, organism-based. The note with it: dose 0.031-1 µg/ml.
For assay [8], the system named is Cryptococcus neoformans. The assay can be described thus: Induction of morphological changes in Cryptococcus neoformans H99 assessed as cell wall damage at 4 microg/ml incubated for 8 hrs by transmission electron microscopic analysis. In kind it is functional, organism-based. The note with it: dose 4.0 µg/ml.
The subject of assay [9] is Cryptococcus neoformans. Briefly: Induction of morphological changes in Cryptococcus neoformans H99 assessed as nuclei damage at 4 microg/ml incubated for 8 hrs by transmission electron microscopic analysis. In kind it is functional, organism-based. Particulars: dose 4.0 µg/ml.
Assay [10] relates to Cryptococcus neoformans. Briefly: Induction of morphological changes in Cryptococcus neoformans H99 assessed as organelle damage at 4 microg/ml incubated for 8 hrs by transmission electron microscopic analysis. The note with it: dose 4.0 µg/ml. Type of assay: functional, organism-based.
The subject of assay [11] is Cryptococcus neoformans. Briefly: Induction of ROS accumulation in Cryptococcus neoformans H99 assessed as increase in intracellular ROS level by measuring intense green fluorescence at 4 microg/ml incubated for 24 hrs by DCFH-DA probe based fluorescence microscopic analysis. Type of assay: functional, organism-based. The note with it: dose 4.0 µg/ml.
For assay [12], the system named is Cryptococcus neoformans. Briefly: Induction of oxidative damage in Cryptococcus neoformans H99 assessed as increase in MDA level at 4 microg/ml incubated for 24 hrs relative to control. In kind it is functional. The note with it: dose 4.0 µg/ml.
Assay [13] deals with Cryptococcus neoformans. The assay can be described thus: Effect on intracellular free iron ions level in Cryptococcus neoformans H99 at 4 microg/ml incubated for 24 hrs by absorbance based analysis. Type of assay: functional, cell-based. The note with it: dose 4.0 µg/ml.
The test system of assay [14] is Cryptococcus neoformans. Briefly: Antifungal activity against Cryptococcus neoformans H99 assessed as inhibition of fungal growth in presence of 10% serum containing transferrin-bound ferric iron and free iron. In kind it is functional.
For assay [15], the system named is Cryptococcus neoformans. Briefly: Antifungal activity against Cryptococcus neoformans H99 assessed as inhibition of fungal growth in presence of Fe(II) ions. In kind it is functional.
Assay [16] relates to Cryptococcus neoformans. The assay can be described thus: Antifungal activity against Cryptococcus neoformans H99 assessed as inhibition of fungal growth in presence of Fe(III) ions. In kind it is functional.
Assay [17] relates to Cryptococcus neoformans. The assay can be described thus: Antifungal activity against Cryptococcus neoformans H99 infected in cryptococcosis female ICR mouse model assessed as reduction in pyknosis in neuronal nuclei by measuring reduction in staining at 20 mg/kg, ip pre-infected with fungi for 3 hrs followed by compound administration and measured after 5 days by H and E staining based analysis. The note with it: time 5.0 day. Type of assay: functional, organism-based.

Assay [18] has as its system Cryptococcus neoformans. Briefly: Antifungal activity against Cryptococcus neoformans H99 infected in cryptococcosis female ICR mouse model assessed as reduction in cysts formation in brain cortex at 20 mg/kg, ip pre-infected with fungi for 3 hrs followed by compound administration and measured after 5 days by H and E staining based analysis. Particulars: time 5.0 day. Type of assay: functional, organism-based.

Calls of active or inactive are those of the source.

Broadly, the inhibition is the change of the read-out against control, counted positive when it falls. Usually MIC stands for the smallest concentration in the dilution series that meets the test's criterion for growth inhibition. Take `OC(Cn1cncn1)(Cn1cncn1)c1ccc(F)cc1F` [FLUCONAZOLE]: the outcome in assay [1], in [8], in [9], in assay [10], in [11] and in assay [12] was inactive. Further, the result in assay [13], in assay [17] and in [18] was inactive. Moreover, the inhibition at 32 µg/mL in [2] turned out to be 17%. In addition, the inhibition result in [3] is recorded as “Moderate_effect”. In addition, the inhibition entry in assay [4], in [5], in [6] and in assay [7] was “inactive” each time. Besides, the MIC in [14], in [15] and in [16] was 2 µg/mL each time.
